Values of other authors in patent publication US20200009266A1, “IN VIVO GENE THERAPY FOR IMMUNE DEFICIENCIES” (priority 2017, published 2020).

Key:
[1] = system: peripheral blood lymphocytes; details: rhesus macaques
[2] = system: circulating CD34+ cells; details: AMD3100 alone, adult dogs

Question: With `c1cc(CN2CCCNCCNCCCNCC2)ccc1CN1CCCNCCNCCCNCC1` [AMD3100] as the molecule, how does the “lymphocyte numbers in peripheral blood” value [1] read?
Answer: increased numbers of B and T lymphocytes

Question: What about the “time of peak mobilization post treatment” value [2] of the same molecule?
Answer: 8 to 10 h

Question: What about the tolerability of treatment [2] of the same molecule?
Answer: well tolerated
